In article PMC5961436, “PKA and PKC Modulators Affect Ion Channel Function and Internalization of Recombinant Alpha1 and Alpha1-Beta Glycine Receptors” (Frontiers in Molecular Neuroscience, 2018):
Where two headings read alike, the source gives them in different places.

Key:
homomeric α1 GlyRs = test system: homomeric α1 GlyRs; parameters: method as in Uchiyama et al., 1994; conditions: ref Uchiyama et al., 1994; cited from earlier work
GlyRs = test system: GlyRs; parameters: method as in Salceda and Aguirre-Ramirez, 2005; conditions: 10 μM Forskolin; ref Salceda and Aguirre-Ramirez, 2005; cited from earlier work
Igly = test system: Igly; parameters: method as in Min et al., 1996; conditions: ref Min et al., 1996; cited from earlier work
human homomeric α1 GlyRs = assay: Whole-cell patch-clamp of glycine induced currents, modulators in the intracellular buffer, HEK293 cells expressing GlyR α1; format: cell-based; conditions: for change of Imax at t = 10 min normalized to t = 0: 0.25 μM intracellular modulator, one-way ANOVA; for effect on EC50: 0.25 μM modulator, t = 0; for desensitization of glycine induced currents / effect on EC50 compared to control / Fraction of desensitizing cells / Imax: 0.5 μM modulator in intracellular buffer; for Fraction of desensitizing cells / Imax: mean ± SEM
Description: (§1) HEK293 cells were grown in 10 cm tissue culture Petri dishes in Eagle minimal essential medium (Sigma-Aldrich Chemie GmbH, Munich, Germany) supplemented with 10% FBS (Invitrogen, Karlsruhe, Germany) and penicillin/streptomycin (Sigma-Aldrich Chemie GmbH, Munich, Germany) at 5% CO2 and 37°C in a water saturated atmosphere. For electrophysiological experiments, cells were plated on poly-L lysine treated glass coverslips in 6 cm dishes. Transfection was performed 1 day after cell passage using Gen-Carrier (Epoch Lifesciences, Sugarland, TX, USA): 1.3 μg of receptor DNA, 1.3 μg of green fluorescent protein DNA, and 2.6 μl GenCarrier were used, following the manufacturer’s instructions. Measurements were performed 2–4 days after transfection. HEK293 cells used for protein expression and internalization analysis were transfected using a modified calcium phosphate precipitation method. In brief, a mixture of plasmid DNA, CaCl2 (2.5M), 0.1× TE buffer and 2× HBS (50 mM HEPES, 12 mM glucose, 10 mM KCl, 280 mM NaCl, 1.5 mM Na2HPO4) was applied onto the cells for 6 h. A GlyR α1 to GlyR β ratio of 1:2 was used for co-expression. Transfection medium was replaced by fresh medium after 6 h. Immunocytochemical stainings were always done 24 h after transfection, biotinylation experiments were performed 48 h after transfection.
(§2) using a nonlinear algorithm in Microcal Origin. Here, Iglycine is the current amplitude at a given glycine concentration, Isat is the maximum current amplitude at saturating concentrations of glycine, EC50 is the glycine concentration at half-maximal current responses, and nHill is the Hill coefficient. Currents from each individual cell were normalized to the maximum response at saturating glycine concentrations. Significance of differences between EC50 values were determined using one-way ANOVA with p ≤ 0.05 (*) and p ≤ 0.01 (**) taken as significant. In all experiments, EC50 values were determined for each individual cell from a non-linear fit of dose response data to the logistic equation. An unweighted average ± standard error (SEM) was calculated from all individual EC50 values, without considering the fitting errors.
(§3) For time course analysis, a series of EC50 data was recorded from each cell. The first concentration-response curve, defined as t = 0, was recorded immediately after establishing the whole-cell configuration and positioning the cell in front of the delivery tube. […] Further recordings were made at t = 3 min, t = 6 min and t = 10 min (not attained with all cells). Time-independent recordings were taken at t = 0, and values of EC50 and Imax in the presence of PKA- or PKC modulators were normalized to control (no modulator). For time course analysis, responses were normalized to the control value at t = 0. Patch-clamp experiments were carried out on different dates and using different batches of HEK 293 cells. Since control EC50 values varied between different days of plating and between batches of cells, measurements with kinase modulators were always compared to control measurements recorded on the same day and from the same batch of cells.

GlyR α1-β = assay: Receptor internalization assay (pre-labeled GlyRs, confocal microscopy) in HEK293 cells; format: cell-based, human; conditions: 200 nM modulator, 15 min, 37°C; untreated cells 1.7 ± 0.4 dots/cell; ± SEM
Description: To stain internalized GlyRs, GlyR α1 was cotransfected with GlyR β into HEK293 cells grown on glass cover slips. Internalization experiments were performed 24 h post-transfection. Live cells co-expressing GlyR α1-β receptors were labeled with the α1-specific monoclonal antibody Mab2b (1:500 in Earle’s minimal essential medium for 1 h at 4°C). Earle’s minimal essential medium was supplemented with 10% fetal calf serum, […] GlutaMAX, 100 mM sodium pyruvate, and 50 U/ml penicillin/streptomycin (Thermo Fisher Scientific, Waltham, MA, USA). Mab2b was purchased from Synaptic Systems, Göttingen, Germany. Following three washing steps in phosphate-buffered saline (PBS, pH 7.4), cells were incubated with goat-anti-mouse-Cy3 secondary antibody again for 1 h at 4°C (dilution of secondary antibody 1:500 in Earle’s minimal essential medium, Dianova, Hamburg Germany). Glass cover slips with pre-labeled GlyRs were transferred into a 24-well plate containing 500 μl of Earle’s minimal essential medium with PKA and PKC modulators (200 nM final concentration each; Forskolin, H-89, PMA, Staurosporine aglycon, all from Sigma-Aldrich Chemie GmbH, Munich, Germany). Cells were incubated with modulators for 15 min to allow receptor internalization. Time point zero (0 min) was taken as a negative internalization control to ensure health of HEK293 cells (pre-labeling of GlyRs at 4°C inhibits internalization). Following incubation with PKA and PKC modulators, cells were stained with a second secondary antibody (donkey-anti-goat-Dyelight488, 1:250 in Earle’s minimal essential medium, Dianova, Hamburg, Germany) for 30 min at 4°C to label receptor retained at the cellular surface. Cells were fixed with 4% paraformaldehyde, 4% sucrose in PBS for 15 min at 4°C, washed three times in PBS and stained with 4′,6-diamidino-2-phenylindole (DAPI, Thermo Fisher Scientific, Waltham, MA, USA) to label the cell nuclei for 5 min at 4°C (1:5000 in PBS). Coverslips were washed again with PBS and Aqua Dest and mounted on glass slides using mowiol.
The images were obtained using an inverted Olympus IX81 microscope equipped with an Olympus FV1000 confocal laser scanning system, a FVD10 SPD spectral detector and diode lasers of 495 nm (Alexa488) and 550 nm (Cy3; Olympus, Tokyo, Japan), and an Olympus UPLSAPO 60× (oil, numerical aperture: 1.35) objective. Adobe Photoshop (Adobe, San Jose, CA, USA) or ImageJ (1.51)/Fiji^1 were used for image analysis.

[1] = test system: human heteromeric α1-β GlyRs; assay: Whole-cell patch-clamp of glycine induced currents, modulators in the intracellular buffer, HEK293 cells expressing GlyR α1-β; format: cell-based; conditions: for desensitization of glycine induced currents / effect on EC50 compared to control / Fraction of desensitizing cells / Imax: 0.5 μM modulator in intracellular buffer; for Fraction of desensitizing cells / Imax: mean ± SEM
Description: as §1, §2, §3

GlyR [2] = test system: GlyR; parameters: method as in Li and Yang, 2001; conditions: ref Li and Yang, 2001; cited from earlier work
nAChR = test system: nAChR; parameters: method as in Wagoner and Pallotta, 1988; conditions: cAMP-independent; ref Wagoner and Pallotta, 1988; cited from earlier work
HEK293 cells = assay: Tolerance of HEK293 cells to intracellular kinase modulators during patch-clamp; conditions: intracellular concentration raised to 1 μM
Description: Whole-cell recording experiments were performed using a HEKA EPC10 amplifier (HEKA Electronics, Lambrecht, Germany) controlled by Pulse software (HEKA). Recording pipettes were pulled from borosilicate glass (World Precision Instruments, Berlin, Germany) using a Sutter P-97 horizontal puller (Sutter, Novato, CA, USA). […] Series resistance, as well as slow and fast capacitance were compensated using the EPC10 circuitry. The different protein kinase modulators were dissolved in intracellular buffer at a concentration of 0.5 μM. For studies of concentration- and time-dependence, kinase modulators were used at concentrations of 0.1 μM and 0.25 μM. Current responses were measured at room temperature (21–23°C) at a holding potential of −50 mV. Solutions were applied using an Octaflow system (NPI electronics, Tamm, Germany), where cells were bathed in a laminar flow of buffer, giving a time resolution for solution exchange and re-equilibration of about 100 ms. The external buffer consisted of 135 mM NaCl, 5.5 mM KCl, 2 mM CaCl2, 1.0 mM MgCl2 and 10 mM Hepes (pH adjusted to 7.4 with NaOH); the internal buffer was 140 mM CsCl, 1.0 mM CaCl2, 2.0 mM MgCl2, 5.0 mM EGTA and 10 mM Hepes (pH adjusted to 7.2 with CsOH).

GlyRα1 = test system: GlyRα1; parameters: method as in Huang et al., 2007; conditions: ref Huang et al., 2007; cited from earlier work
GlyR [3] = test system: GlyR; parameters: method as in Vaello et al., 1994; conditions: ref Vaello et al., 1994; cited from earlier work
glycine currents = test system: glycine currents; parameters: method as in Tapia et al., 1997; conditions: ref Tapia et al., 1997; cited from earlier work
[4] = test system: GABA- and Gly-gated currents; parameters: method as in Machu et al., 2006; conditions: HEK293 cells, ref Machu et al., 2006, cited from earlier work
[5] = test system: GABA- and Gly-gated currents; parameters: method as in Machu et al., 2006; conditions: oocytes; ref Machu et al., 2006; cited from earlier work
[6] = test system: glycine activated chloride currents; parameters: method as in Ren et al., 1998; conditions: added to the pipette solution; ref Ren et al., 1998; cited from earlier work

SMILES	change of Imax at t = 10 min normalized to t = 0 (human homomeric α1 GlyRs)	effect on EC50 (human homomeric α1 GlyRs)	desensitization of glycine induced currents (human homomeric α1 GlyRs; GlyR α1)	effect on EC50 compared to control (human homomeric α1 GlyRs; GlyR α1)	Fraction of desensitizing cells (human homomeric α1 GlyRs; GlyR α1)	Imax (human homomeric α1 GlyRs; GlyR α1)	internalized receptor (GlyR α1-β)	desensitization of glycine induced currents [1]	effect on EC50 compared to control [1]	Fraction of desensitizing cells [1]	Imax [1]	further results
CCCCCCCCCCCCCC(=O)O[C@@H]1[C@@H](C)[C@@]2(O)[C@@H](C=C(CO)C[C@]3(O)C(=O)C(C)=C[C@@H]23)[C@@H]2C(C)(C)[C@]12OC(C)=O [4-beta-PMA]												effect on glycine currents (homomeric α1 GlyRs): Reduced responses
C=C[C@@]1(C)CC(=O)[C@]2(O)[C@@]3(C)[C@@H](O)CCC(C)(C)[C@@H]3[C@H](O)[C@H](OC(C)=O)[C@@]2(C)O1 [Forskolin]	significantly reduced	increased EC50	faster desensitization	significant increase	0.57 ± 0.12	1.20 ± 0.24 nA	6.9 ± 1.5 dots/cell	faster desensitization	significant increase	0.52 ± 0.07	0.99 ± 0.24 nA	reduction of specific binding of both radioligands (GlyRs): 30%–90%; effect on Igly (Igly): inhibited Igly potentiation; effect on desensitization of whole cell responses (GlyR [2]): markedly accelerates desensitization; effect on desensitization of the nAChR (nAChR): enhancement of desensitization
O=C1NCc2c1c1c3ccccc3[nH]c1c1[nH]c3ccccc3c21 [Staurosporine aglycon]	not significant	opposite effect	slow or no desensitization	decrease of half maximum values	0.10 ± 0.05	1.70 ± 0.29 nA	2.3 ± 0.5 dots/cell	slow or no desensitization	decrease of half maximum values	0.06 ± 0.04	1.11 ± 0.20 nA	cell survival (HEK293 cells): cells did not survive; effect of 4-beta-PMA in the presence of Staurosporine aglycon (homomeric α1 GlyRs): the effect was inhibited
C=C[C@@]1(C)CC(=O)[C@@H]2[C@@]3(C)CCCC(C)(C)[C@@H]3[C@H](O)[C@H](OC(C)=O)[C@@]2(C)O1 [1,9-dideoxy Forskolin]												effect on desensitization of whole cell responses (GlyR [2]): accelerates the desensitization effectively
NCC(=O)O [glycine]												EC50 (human homomeric α1 GlyRs; GlyR α1, absence of modulators, n = 11): 37.4 ± 3.7 µM; EC50 ([1]; absence of modulators, n = 8): 45.4 ± 6 µM
CCCCCCCCCCCCCC(=O)O[C@@H]1[C@@H](C)[C@@]2(O)[C@@H](C=C(CO)C[C@]3(O)C(=O)C(C)=C[C@@H]23)[C@@H]2C(C)(C)[C@]12OC(C)=O [PMA, phorbol-12-myristate-13-acetate]	significantly reduced	increased EC50	no effect on receptor desensitization	increased	0.05 ± 0.05	2.30 ± 0.74 nA	3.9 ± 0.7 dots/cell	no effect on receptor desensitization	not statistically significant	0.27 ± 0.08	1.26 ± 0.27 nA	start of receptor internalization (GlyRα1): ≤ 15 min; effect on glycinergic currents (GlyR [3]): decreased glycinergic currents; effect on glycine currents (glycine currents): reduce the amplitude of glycine currents; modulation of receptors ([4]; 35°C): decreased the function; modulation of receptors ([4]; room temperature): ineffective; peak amplitude of GABA- and Gly-gated currents [5]: large, reproducible decrease
CCCCCCCCCCCCCC(=O)O[C@@H]1[C@@H](C)[C@@]2(O)[C@@H](C=C(CO)C[C@@]3(O)C(=O)C(C)=C[C@@H]23)[C@@H]2C(C)(C)[C@]12OC(C)=O [4-alpha-PMA]												effect on glycine currents (homomeric α1 GlyRs): did not affect the glycine currents
O=S(=O)(NCCNC/C=C/c1ccc(Br)cc1)c1cccc2cnccc12 [H-89]	not significant	opposite effect	non-desensitizing current responses	decreased EC50 values	0.07 ± 0.03	1.91 ± 0.57 nA	4.0 ± 1.0 dots/cell	non-desensitizing current responses	decreased EC50 values	0.19 ± 0.09	1.37 ± 0.28 nA	effect on Igly (Igly): potentiation of Igly; effect on ATP induced run-up of the glycine current [6]: blocked
